Source: the supplement of paper PMC10307832

Assays:
Test in all cases: relative viability (nuclei count vs DMSO), 5 days (fraction); higher = more cells survive
[1] = tested on: LCLC-97TM1
Outline: (§1)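 Relative viability is defined as nuclei in treated wells over nuclei in vehicle wells. Duplicate plates were run and medians reported. Lung cancer cell lines in 1536-well plates were dosed by pin tool one day after seeding, with one drug or with a fixed anchor-drug dose plus five library-drug doses (not always all listed) in √10 steps, and nuclei were counted after 5 days.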

[2] = tested on: HCC-366
Outline: as §1

[3] = tested on: EBC-1
Outline: as §1

[4] = tested on: NCI-H2009
Outline: as §1

[5] = tested on: NCI-H1650
Outline: as §1

[6] = tested on: NCI-H650
Outline: as §1

[7] = tested on: RERF-LC-KJ
Outline: as §1

[8] = tested on: HCC-44
Outline: as §1

[9] = tested on: COR-L23
Outline: as §1

[10] = tested on: NCI-H460
Outline: as §1

[11] = tested on: SW 1573
Outline: as §1

[12] = tested on: NCI-H2126
Outline: as §1

[13] = tested on: LOU-NH91
Outline: as §1

[14] = tested on: NCI-H1993
Outline: as §1

[15] = tested on: HARA
Outline: as §1

[16] = tested on: 201T
Outline: as §1

[17] = tested on: HCC-78
Outline: as §1

[18] = tested on: A-427
Outline: as §1

[19] = tested on: NCI-H1734
Outline: as §1

[20] = tested on: NCI-H2023
Outline: as §1

[21] = tested on: HCC-15
Outline: as §1

CCCCCCCCCCCC1=C(O)C(=O)C=C(O)C1=O [Embelin] + CS(=O)(=O)CCNCc1ccc(-c2ccc3ncnc(Nc4ccc(OCc5cccc(F)c5)c(Cl)c4)c3c2)o1 [Lapatinib] (partner 2 µM)
relative viability ([1]; first compound 0.8 µM): 1.48
relative viability ([1]; first compound 2.53 µM): 0.823
relative viability ([1]; first compound 8 µM): 0.86
relative viability ([2]; first compound 0.08 µM): 1.08
relative viability ([2]; first compound 0.8 µM): 1.11
relative viability ([2]; first compound 2.53 µM): 1.21
relative viability ([2]; first compound 8 µM): 1.32
relative viability ([3]; first compound 0.08 µM): 0.202
relative viability ([3]; first compound 0.8 µM): 0.247
relative viability ([3]; first compound 2.53 µM): 0.218
relative viability ([3]; first compound 8 µM): 0.217
relative viability ([4]; first compound 0.08 µM): 1.05
relative viability ([4]; first compound 0.8 µM): 1.09
relative viability ([4]; first compound 2.53 µM): 0.815
relative viability ([4]; first compound 8 µM): 0.879
relative viability ([5]; first compound 0.08 µM): 0.762
relative viability ([5]; first compound 0.8 µM): 0.931
relative viability ([5]; first compound 2.53 µM): 0.74
relative viability ([5]; first compound 8 µM): 0.712
relative viability ([6]; first compound 0.08 µM): 0.677
relative viability ([6]; first compound 0.8 µM): 1.47
relative viability ([6]; first compound 2.53 µM): 0.831
relative viability ([6]; first compound 8 µM): 0.658
relative viability ([7]; first compound 0.08 µM): 0.81
relative viability ([7]; first compound 0.8 µM): 0.935
relative viability ([7]; first compound 2.53 µM): 0.991
relative viability ([7]; first compound 8 µM): 0.84
relative viability ([8]; first compound 0.08 µM): 1.03
relative viability ([8]; first compound 0.8 µM): 1.02
relative viability ([8]; first compound 2.53 µM): 1.15
relative viability ([8]; first compound 8 µM): 0.908
relative viability ([9]; first compound 0.08 µM): 0.927
relative viability ([9]; first compound 0.8 µM): 0.966
relative viability ([9]; first compound 2.53 µM): 1.34
relative viability ([9]; first compound 8 µM): 1.09
relative viability ([10]; first compound 0.08 µM): 1.04
relative viability ([10]; first compound 0.8 µM): 1.1
relative viability ([10]; first compound 8 µM): 1.1
relative viability ([11]; first compound 0.08 µM): 1.04
relative viability ([11]; first compound 0.8 µM): 1.03
relative viability ([11]; first compound 2.53 µM): 1.33
relative viability ([11]; first compound 8 µM): 1.09
relative viability ([12]; first compound 0.08 µM): 0.742
relative viability ([12]; first compound 0.8 µM): 0.791
relative viability ([12]; first compound 2.53 µM): 0.83
relative viability ([12]; first compound 8 µM): 0.643
relative viability ([13]; first compound 0.08 µM): 0.823
relative viability ([13]; first compound 0.8 µM): 0.99
relative viability ([13]; first compound 2.53 µM): 0.866
relative viability ([13]; first compound 8 µM): 0.63
relative viability ([14]; first compound 0.08 µM): 0.845
relative viability ([14]; first compound 0.8 µM): 0.777
relative viability ([14]; first compound 2.53 µM): 0.803
relative viability ([14]; first compound 8 µM): 0.834
relative viability ([15]; first compound 0.08 µM): 0.665
relative viability ([15]; first compound 0.8 µM): 0.961
relative viability ([15]; first compound 2.53 µM): 0.895
relative viability ([15]; first compound 8 µM): 0.755
relative viability ([16]; first compound 0.08 µM): 1.03
relative viability ([16]; first compound 0.8 µM): 1.04
relative viability ([16]; first compound 2.53 µM): 1
relative viability ([16]; first compound 8 µM): 0.99
relative viability ([17]; first compound 0.08 µM): 0.767
relative viability ([17]; first compound 0.8 µM): 0.703
relative viability ([17]; first compound 2.53 µM): 0.796
relative viability ([17]; first compound 8 µM): 0.616
relative viability ([18]; first compound 0.08 µM): 1.07
relative viability ([18]; first compound 0.8 µM): 1.05
relative viability ([18]; first compound 2.53 µM): 1.2
relative viability ([18]; first compound 8 µM): 0.947
relative viability ([19]; first compound 0.08 µM): 0.963
relative viability ([19]; first compound 0.8 µM): 1.28
relative viability ([19]; first compound 2.53 µM): 1.26
relative viability ([19]; first compound 8 µM): 1.12
relative viability ([20]; first compound 0.08 µM): 0.837
relative viability ([20]; first compound 0.8 µM): 0.979
relative viability ([20]; first compound 2.53 µM): 0.838
relative viability ([20]; first compound 8 µM): 0.477
relative viability ([21]; first compound 0.08 µM): 0.835
relative viability ([21]; first compound 0.8 µM): 0.92
relative viability ([21]; first compound 2.53 µM): 0.944
relative viability ([21]; first compound 8 µM): 0.795
